pEC50, pIC50: −log10 of the molar value. Entries after “also recorded” stand apart in the source; their conditions may differ.
Assays:
[1] = system: IL-8 release in d-U937 cells; assay: LPS-induced IL-8 release in d-U937 cells; assay type: cell-based, human; conditions: Homo sapiens, dU937
Procedure, shortened: (§1)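 Sandwich ELISA of TNFα and IL-8 in supernatants after 4 hr 0.1 μg/mL LPS (E. coli O111:B4) challenge of U937 cells differentiated with PMA 100 ng/ml for 48–72 hr, compound added 2 hr beforehand. IL-8: IC50 from inhibition versus vehicle; TNFα: REC50 from inhibition as percentage of 10 μg/mL BIRB796 effect.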

[2] = system: TNFα release in THP-1 cells; assay: LPS-induced TNFα release in THP-1 cells; assay type: cell-based, human; conditions: Homo sapiens
Procedure, shortened: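 IC50 derived from concentration-response of TNFα inhibition relative to vehicle, with TNFα quantified by sandwich ELISA in supernatants. THP-1 cells were challenged 4 hr with LPS (E. coli, 3 μg/mL).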

[3] = target: T1, p38 MAPKγ (MAPK12) (Homo sapiens, UniProt P53778); assay: Enzyme inhibition assay (FRET, Z-LYTE), p38 MAPKγ; assay type: biochemical; conditions: read-out: Enzyme Inhibition IC50 p38γ
T1 construct: purchased Invitrogen
T1 sequence (P53778 1-367): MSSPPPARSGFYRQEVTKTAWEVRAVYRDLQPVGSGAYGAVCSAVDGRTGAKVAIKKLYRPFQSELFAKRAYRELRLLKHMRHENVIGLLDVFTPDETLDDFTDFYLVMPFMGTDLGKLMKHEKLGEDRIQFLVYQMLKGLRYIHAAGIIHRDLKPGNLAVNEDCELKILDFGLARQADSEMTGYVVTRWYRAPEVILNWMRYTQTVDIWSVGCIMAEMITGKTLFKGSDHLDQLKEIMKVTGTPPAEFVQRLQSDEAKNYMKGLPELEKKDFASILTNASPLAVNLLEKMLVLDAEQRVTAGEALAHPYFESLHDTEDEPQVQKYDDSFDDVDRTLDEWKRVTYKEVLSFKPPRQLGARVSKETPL
Procedure, shortened: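 Z-LYTE FRET readout: after 1 h kinase reaction (ATP 100 μM, peptide 2 μM) following 2 h RT enzyme–compound preincubation in HEPES, protease cleaves only unphosphorylated peptide. Percent inhibition from donor/acceptor ratio relative to control; IC50 fitted from the curve.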

[4] = system: Balb/c mice; assay: LPS-induced neutrophil accumulation in mice; assay type: in vivo; conditions: for % inhibition of Influx / Neutrophil numbers in BAL 8 h pre-dose: 0.2 mg/mL, 8 h pre-dose; for inhibitory effects versus neutrophil influx into the BALF: dosed 8 hr before the inflammatory stimulus
Protocol: LPS-Induced Neutrophil Accumulation in Mice
Non-fasted Balb/c mice were dosed by the intra tracheal route with either vehicle, or the test substance at the indicated times (within the range 2-8 hr) before stimulation of the inflammatory response by application of an LPS challenge. At T=0, mice were placed into an exposure chamber and exposed to LPS. After a further 8 hr the animals were anesthetized, their tracheas cannulated and BALF extracted by infusing and then withdrawing from their lungs 1.0 mL of PBS via the tracheal catheter. Total and differential white cell counts in the BALF samples were measured using a Neubaur haemocytometer. Cytospin smears of the BALF samples were prepared by centrifugation at 200 rpm for 5 min at RT and stained using a DiffQuik stain system (Dade Behring). Cells were counted using oil immersion microscopy.

[5] = target: T2, p38 MAPKα isoform (MAPK14) (Homo sapiens, UniProt Q16539); assay: Enzyme inhibition assay (FRET, Z-LYTE), p38 MAPKα via MAPKAP-K2 activation; assay type: biochemical; conditions: read-out: Enzyme Inhibition IC50 p38α
T2 construct: purchased Invitrogen
Procedure, shortened: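 Z-LYTE FRET format, in which protease cleaves only non-phosphorylated peptide, read after 1 h development. Compound was mixed with p38 MAPKα for 2 h at RT, and inhibition was gauged from MAPKAP-K2 activation/phosphorylation rather than directly. Percent inhibition against an uninhibited control was fitted to give IC50.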

[6] = system: Differentiated U937 cells; assay: Cell viability MTT assay; assay type: cell-based, human; conditions: negative = apparent increase in viability; for MTT Assay (Viability) 4 h d-U937, percentage loss of cell viability: 4 hr in 5% FCS; for MTT Assay (Viability) 24 h d-U937, percentage loss of cell viability: 24 h in 10% FCS
Procedure, shortened: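 Differentiated U937 cells pre-incubated with compound either 4 hr in 5% FCS or 24 h in 10% FCS, then 1 hr MTT. Formazan dissolved in DMSO, absorbance at 550 nm. Percentage viability loss relative to 0.5% DMSO vehicle; apparent increases appear as negative percentages.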

[7] = system: TNFα release in d-U937 cells; assay: LPS-induced TNFα release in d-U937 cells; assay type: cell-based, human; conditions: Homo sapiens, dU937, relative to 10 μg/mL BIRB796, read-out: LPS/TNFα REC50 d-U937
Procedure, shortened: as §1

[8] = system: ICAM-1 induction in BEAS2B cells; assay: Poly I:C-induced ICAM-1 induction in BEAS2B cells; assay type: cell-based, human; conditions: Homo sapiens, BEAS-2B, read-out: PolyIC/ICAM1 IC50 BEAS2B
Procedure, shortened: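 IC50 reflects inhibition of cell-surface ICAM-1 relative to vehicle, read by ELISA (OD450 against 655 nm) and divided by crystal violet OD595 for cell number. Readings were taken 18 hr after transfection of 1 μg/mL poly I:C into BEAS2B cells. Compound was added 2 hr before stimulation.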

[9] = system: A/J mice; assay: Cigarette smoke model; assay type: in vivo; conditions: 1.75 μg/mouse (35 μL, bid, i.n.), cigarette smoke model
Protocol: A/J mice (males, 5 weeks old) were exposed to cigarette smoke (4% cigarette smoke, diluted with air) for 30 min/day for 11 days using a Tobacco Smoke Inhalation Experiment System for small animals (Model SIS-CS; Sibata Scientific Technology, Tokyo, Japan). Test substances were administered intra-nasally (35 μL of solution in 50% DMSO/PBS) twice daily for 3 days after the final cigarette smoke exposure. At 12 hr after the last dosing, each of the animals was anesthetized, the trachea cannulated and bronchoalveolar lavage fluid (BALF) was collected. The numbers of alveolar macrophages and neutrophils were determined by FACS analysis (EPICS® ALTRA II, Beckman Coulter, Inc., Fullerton, Calif., USA) using anti-mouse MOMA2 antibody (macrophage) or anti-mouse 7/4 antibody (neutrophil).
The data for cell numbers are shown as the mean±SEM.

T2 sequence (Q16539 whole entry, canonical isoform): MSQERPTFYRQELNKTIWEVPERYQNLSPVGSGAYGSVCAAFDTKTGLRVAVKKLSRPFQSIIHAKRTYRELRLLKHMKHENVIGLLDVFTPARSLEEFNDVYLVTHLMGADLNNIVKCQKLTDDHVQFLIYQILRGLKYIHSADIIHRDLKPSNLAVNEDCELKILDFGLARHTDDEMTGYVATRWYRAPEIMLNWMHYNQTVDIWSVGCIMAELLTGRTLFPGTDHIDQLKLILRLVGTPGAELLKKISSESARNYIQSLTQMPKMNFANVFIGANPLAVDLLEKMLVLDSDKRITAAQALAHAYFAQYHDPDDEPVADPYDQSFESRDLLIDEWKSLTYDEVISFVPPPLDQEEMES

pIC50 [1]	pIC50 [2]	pIC50 [3]	pIC50 [5]	pEC50 [7]	Compound	% inhibition of Influx ([4]; Table 6) [%]	Neutrophil numbers in BAL 8 h pre-dose ([4]; Table 6)	inhibitory effects versus neutrophil influx into the BALF [4]	MTT Assay (Viability) 4 h d-U937, percentage loss of cell viability [6] [%]	MTT Assay (Viability) 24 h d-U937, percentage loss of cell viability [6] [%]	pIC50 [8]	inhibition of LPS-induced neutrophil accumulation ([4]; 1.75 μg/mouse) [%]	neutrophil or macrophage accumulation into airways [9]	% inhibition of Influx ([4]; Table 5) [%]	Neutrophil numbers in BAL 8 h pre-dose ([4]; Table 5)
8.77	9.40	6.74	6.83	8.89	CC(C)(C)c1cc(NC(=O)Nc2ccc(Oc3ccnc(NC(=O)N4CCCC4)c3)c(Cl)c2Cl)n(-c2ccc(O)cc2)n1 [Example 75, N-(4-(4-(3-(3-tert-butyl-1-(4-hydroxyphenyl)-1H-pyrazol-5-yl)ureido)-2,3-dichlorophenoxy)pyridin-2-yl)pyrrolidine-1-carboxamide]	23	10.87 ± 2.13 × 10^5/mL	inhibitory effects; also recorded: particularly marked	−33.7	6.6	9.52	–	–	–	–
–	–	–	–	–	CCC(=O)O[C@]1(C(=O)SCF)[C@H](C)C[C@H]2[C@@H]3C[C@H](F)C4=CC(=O)C=C[C@]4(C)[C@@]3(F)[C@@H](O)C[C@@]21C [fluticasone propionate, reference compound]	–	–	–	–	–	–	> 80	did not inhibit	–	–
8.44	9.22	7.23	7.91	9.10	CN(C)[C@H]1CCN(C(=O)Nc2cc(Oc3ccc(NC(=O)Nc4cc(C(C)(C)C)nn4-c4ccc(O)cc4)c(Cl)c3Cl)ccn2)C1 [Example 80, (S)-N-(4-(4-(3-(3-tert-butyl-1-(4-hydroxyphenyl)-1H-pyrazol-5-yl)ureido)-2,3-dichlorophenoxy)pyridin-2-yl)-3-(dimethylamino) pyrrolidine-1-carboxamide]	–	–	inhibitory effects	−3.0	15.7	8.64	–	–	12	15.22 ± 2.34 × 10^5/mL
8.96	8.77	7.33	8.24	8.77	Cc1ccc(-n2nc(C(C)(C)C)cc2NC(=O)Nc2ccc(Oc3cc(NC(=O)NCCN(C)C)ncn3)c(Cl)c2Cl)cc1 [Example 24, 1-(3-tert-Butyl-1-p-tolyl-1H-pyrazol-5-yl)-3-(2,3-dichloro-4-(6-(3-(2-(dimethylamino)ethyl)ureido)pyrimidin-4-yloxy)phenyl)urea]	–	–	inhibitory effects	−17.7	39.5	7.98	–	–	9	15.71 ± 2.48 × 10^5/mL
8.33	9.30	7.76	8.12	9.05	CNCC(=O)Nc1cc(Oc2ccc(NC(=O)Nc3cc(C(C)(C)C)nn3-c3ccc(CO)cc3)c(Cl)c2Cl)ccn1 [Example 8, N-(4-(4-(3-(3-tert-Butyl-1-(4-(hydroxymethyl)phenyl)-1H-pyrazol-5-yl)ureido)-2,3-dichlorophenoxy)pyridin-2-yl)-2-(methylamino)acetamide]	–	–	–	−7.0	85.6	8.62	–	–	–	–
6.97	8.02	5.46	7.94	7.57	COCC(=O)Nc1cc(Oc2cc(Cl)c(NC(=O)Nc3cc(C(C)(C)C)nn3-c3ccc(C)cc3)cc2Cl)ccn1 [Example 39, N-(4-(4-(3-(3-tert-butyl-1-p-tolyl-1H-pyrazol-5-yl)ureido)-2,5-dichlorophenoxy)pyridin-2-yl)-2-methoxyacetamide]	–	–	–	6.5	−3.0	6.96	–	–	–	–
7.68	8.74	7.32	8.10	8.66	COCC(=O)Nc1cc(Oc2ccc(NC(=O)Nc3cc(C(C)(C)C)nn3-c3ccc(OC)cc3)c(Cl)c2Cl)ccn1 [Example 44, N-(4-(4-(3-(3-tert-butyl-1-(4-methoxyphenyl)-1H-pyrazol-5-yl)ureido)-2,3-dichlorophenoxy)pyridin-2-yl)-2-methoxyacetamide]	–	–	–	−25.9	87.1	9.05	–	–	–	–
8.23	8.80	6.79	7.23	8.92	COCC(=O)Nc1cc(Oc2ccc(NC(=O)Nc3cc(C(C)(C)C)nn3-c3ccc(OC)cc3)c(Cl)c2Cl)ncn1 [Example 91, N-(6-(4-(3-(3-tert-butyl-1-(4-methoxyphenyl)-1H-pyrazol-5-yl)ureido)-2,3-dichlorophenoxy)pyrimidin-4-yl)-2-methoxyacetamide]	–	–	inhibitory effects; also recorded: particularly marked	−47.2	6.9	8.54	–	–	33	11.67 ± 2.07 × 10^5/mL
8.02	9.05	7.39	6.98	8.64	COCC(=O)Nc1cc(Oc2ccc(NC(=O)Nc3cc(C(C)(C)C)nn3-c3ccc(C)cc3)c(F)c2)ccn1 [Example 1, N-(4-(4-(3-(3-tert-Butyl-1-p-tolyl-1H-pyrazol-5-yl)ureido)-3-fluorophenoxy)pyridin-2-yl)-2-methoxyacetamide]	–	–	–	1.7	76.1	8.06	–	–	–	–

Reference: US10000471B2, “Pyrazole P38 map kinase inhibitors” (Respivert Limited, priority 2010, dated 2018)
